Measured values: patent US20100221304A1, “Bionanocomposite Materials and Methods For Producing and Using the Same” (The Regents of the University of Colorado, a body corporate, priority 2009, published 2010)

Key:
SMC = SMC migration, in-growth and contraction in collagen-chitosan scaffolds; assay type: cell-based
Excerpt: In addition, collagen-chitosan scaffolds have been developed as a structural support for the formation of a vascular media equivalent. In particular, the effects of cross-linking and PDGF-BB (with or without heparin or serum) on biomechanical properties, SMC migration, SMC contraction, and wound healing have been evaluated (FIG. 12). […] For example, it enhanced the strength and modulus while inhibited SMC in-growth and contraction. With a low cross-linking condition, the molecule effects of PDGF-BB, a SMC attractant, were studied with or without serum or heparin.

smooth muscle cell (SMC) = test: SMC contraction and invasion in genipin-crosslinked collagen-chitosan-elastin (CCE) gel constructs; assay type: cell-based
Excerpt: The vascular media, a layer of the blood vessel wall containing smooth muscle cell (SMC), is often the target functional tissue in the construction of biomimetic vascular grafts. It has a major contribution to mechanical properties and biological functions of vessels including contraction and healing. The present inventors have studied the effects of crosslinking and biomolecule conditions in the development of mechanically strong and stable, biologically functional constructs for vascular media equivalents. To this end, genipin was used to crosslink collagen-chitosan-elastin (CCE) constructs, and the effects of genipin concentration on the mechanical properties and SMC activity of CCE gel constructs were examined.
To enhance biological activities of cells on the genipin-treated CCE constructs, soluble molecule factors were incorporated with structural constructs and their effects on SMC activities were evaluated. These conditions include heparin, platelet-derived […] growth factor (PDGF), high-concentrated fetal bovine serum (h-FBS), mixture of heparin and PDGF and mixture of h-FBS and PDGF. […] The ingrowth of SMC in the vascular media equivalent also promoted wound healing process of the construct scaffold by showing the closure of the puncture hole (FIG. 14).

Row | Compound | SMC in-growth and contraction (SMC; collagen-chitosan scaffolds cross-linked using genipin) | SMC contraction or invasion in the gels (smooth muscle cell (SMC); genipin at a concentration of 5 mM or above) | SMC contraction and invasion in the CCE gels (smooth muscle cell (SMC); genipin crosslinking) | PDGF-induced cell migration and contraction (SMC; low cross-linking condition, PDGF-BB with or without serum or heparin) | PDGF-induced SMC invasion into the crosslinked constructs (smooth muscle cell (SMC))
1 | COC(=O)C1=CO[C@@H](O)[C@@H]2C(CO)=CC[C@H]12 [genipin] | inhibited | No SMC contraction or invasion was observed | significantly inhibited | – | –
2 | heparin | – | – | – | inhibited | inhibitory effects
